Results from patent US20100113272A1, “HERBICIDAL COMPOSITION AND METHOD OF USE THEREOF” (SYNGENTA CORP PROTECTION, INC., priority 2006, published 2010).

Key:
[1] = system: large crabgrass (Digitaria sanguinalis); experiment: Glasshouse trial, control of large crabgrass, mesotrione and prodiamine spray applied post-emergence; assay type: in vivo; settings: for control of large crabgrass on its own: spray post-emergence, 14 DAT
Method: A glasshouse trial was carried out. Large crabgrass seeds were sown into standard glasshouse potting mix (1:1 v/v Promix:Vero sand soil) contained in 10 cm square plastic pots. Treatments were replicated three times. Mesotrione (in the form Callisto® 480SE) was applied post-emergence to large crabgrass (Digitaria sanguinalis) at either 12 g ai/ha or 24 g ai/ha with or without prodiamine (in the form Barricade® 4FL). When used, prodiamine was applied at a rate of 210 g ai/ha or 420 g ai/ha. The adjuvant system was X-77 at 0.1% v/v in deionised water. 200 litres of herbicide/adjuvant system was used per hectare. General weed control was evaluated at 7 and 14 days after treatment (DAT). It is noted that all herbicides were applied at reduced field rates because herbicide effects are magnified in a glasshouse environment. Rates were chosen to give a 50 to 70% level of control with herbicides applied alone as this allows for detection of any synergistic effect when tank mixtures are used.
The results were evaluated using the Colby formula. The expected result for (A+B) is (A+B)−(A×B/100) where A and B are the ‘observed’ results for A and B on their own.

[2] = system: large crabgrass; experiment: Glasshouse trial, control of large crabgrass, mesotrione and prodiamine spray applied pre-emergence; assay type: in vivo, Digitaria sanguinalis; settings: for control of large crabgrass on its own: spray pre-emergence, 7 DAT
Method: A glasshouse trial was carried out. Large crabgrass seeds were sown into standard glasshouse potting mix (1:1 v/v Promix:Vero sand soil) contained in 10 cm square plastic pots. Treatments were replicated three times. Mesotrione (in the form Callisto® 480SE) was applied pre-emergence to large crabgrass at either 12 g ai/ha or 24 g ai/ha with or without prodiamine (in the form Barricade® 4FL). When used, prodiamine was applied at a rate of 53 g ai/ha or 105 g ai/ha. The adjuvant system was X-77 at 0.1% v/v in deionised water. 200 litres of herbicide/adjuvant system was used per hectare. General weed control was evaluated at 7 and 14 days after treatment (DAT).
It is noted that control of large crabgrass with mesotrione alone applied pre-emergence at the higher rate (24 g ai/ha) was high; thus it was not possible to detect synergy when mesotrione was mixed with prodiamine. […] The results were evaluated using the Colby formula. The expected result for (A+B) is (A+B)−(A×B/100) where A and B are the ‘observed’ results for A and B on their own.

Structure (SMILES)	control of large crabgrass on its own ([1]; prodiamine alone, 210 or 420 g ai/ha)	control of large crabgrass on its own ([2]; prodiamine alone, 105 g ai/ha) [%]	control of large crabgrass on its own ([1]; mesotrione alone at the higher rate (24 g ai/ha)) [%]	control of large crabgrass on its own ([1]; mesotrione alone at the lower rate (12 g ai/ha)) [%]	control of large crabgrass with mesotrione alone ([1]; post-emergence, 7 DAT)	control of large crabgrass on its own ([2]; mesotrione alone, 12 g ai/ha) [%]	control of large crabgrass with mesotrione alone ([2]; pre-emergence at the higher rate (24 g ai/ha))
CCCN(CCC)c1c([N+](=O)[O-])cc(C(F)(F)F)c(N)c1[N+](=O)[O-] [Prodiamine, N^3,N^3-di-n-propyl-2,4-dinitro-6-(trifluoromethyl)-m-phenylenediamine]	no control	76					
CS(=O)(=O)c1ccc(C(=O)C2C(=O)CCCC2=O)c([N+](=O)[O-])c1 [Mesotrione, 2-(2′-nitro-4′-methylsulphonylbenzoyl)-1,3-cyclohexanedione]			66.7	46.7	relatively high	50	high
